The assay deals with anterior neuroectoderm cells. Nature of the assay: Retinal differentiation with removal of the BMP inhibitor (RD1 then RD2). It counts as cell-based, human. The following applies: RD1 with LDN193189 about 2 days, then RD2 without. How it is done:
In some aspects, the cells may be first differentiated in the presence of a BMP inhibitor, such as LDN1913189, for a period of time before differentiation in the absence of a BMP inhibitor. First, the anterior neuroectoderm cells are cultured in RD1 comprising a BMP pathway inhibitor, such as LDN193189, for about 1-3 days, such as 2 days. […] The second step may be for about 5-10 days, such as about 7 days, to continue differentiating the anterior neuroectoderm cells. […] VSX2 is the earliest specific marker of neural RPC within the optic vesicle and cup (Rowan, et al., 2004). VSX2^+ retinal progenitors can give rise to all cell types of the neural retina: cones, rods, ganglion cells, amacrine cells, bipolar cells, horizontal cells and Muller glia.
The cells were then cultured in Retinal Differentiation Medium 1 (RD1) for about one to four days, particularly about two days. Briefly, the RD1 (Table 1) comprised DMEM and F12 at about a 1:1 ratio, knockout serum replacement, MEM NEAA, sodium pyruvate, N-2 supplement, B-27 supplement, and ascorbic acid. In addition, the RD1 comprised a WNT pathway inhibitor (e.g., CKI-7), a BMP pathway inhibitor (e.g., LDN193189), a TGFβ pathway inhibitor (e.g., SB431542), and a MEK inhibitor (e.g., PD325901), and IGF-1. […]

The values that follow come from patent publication US12110503B2, “Method for differentiation of ocular cells and use thereof” (FUJIFILM Cellular Dynamics, Inc., priority 2018, dated 2024).

With `Cl.c1ccc2c(-c3cnn4cc(-c5ccc(N6CCNCC6)cc5)cnc34)ccnc2c1` [LDN193189, 4-(6-(4-(piperazin-1-yl)phenyl)pyrazolo[1,5-a]pyrimidin-3-yl)quinoline hydrochloride], the “VSX2 expression after removal of the BMP inhibitor” value is reported as “increase expression of VSX2”.
